Earlier results as cited in patent US8067011B2, “Compositions and methods for treating B-cell malignancies” (Chimeros, Inc., priority 2006, dated 2011).

Columns and labels:
[1] = test system: relapsed or refractory, low-grade or follicular, CD20-positive, B-cell non-Hodgkin's lymphoma; conditions: low-grade or follicular NHL
[2] = test system: diffuse large B-cell, CD20-positive, non-Hodgkin's lymphoma; conditions: added to CHOP or other anthracycline-based chemotherapy, first-line DLBCL

## Rituxan: naked antibody that specifically binds to CD20, used for B cell-derived lymphomas and leukemias
[1]
  median duration of response, defined as progression free survival: about 1 year
  response rate: about 50%
[2]
  extension of progression free survival over chemotherapy alone: about 1.5 years
